The experiment addresses Polθ protein (amino acids 2-2590) (Homo sapiens, UniProt O75417). In words: Polθ full length enzyme potency assay (PicoGreen). Conditions: Polθ IC50 (nM), full length N-His, C-term FLAG tagged Polθ, PicoGreen fluorescence, 12 point concentration response.

The values below come from patent US12358886B2, “Heterocyclic compounds for use in the treatment of cancer” (Artios Pharma Limited, priority 2019, dated 2025).

Polθ protein (amino acids 2-2590), sequence (O75417 2-2590): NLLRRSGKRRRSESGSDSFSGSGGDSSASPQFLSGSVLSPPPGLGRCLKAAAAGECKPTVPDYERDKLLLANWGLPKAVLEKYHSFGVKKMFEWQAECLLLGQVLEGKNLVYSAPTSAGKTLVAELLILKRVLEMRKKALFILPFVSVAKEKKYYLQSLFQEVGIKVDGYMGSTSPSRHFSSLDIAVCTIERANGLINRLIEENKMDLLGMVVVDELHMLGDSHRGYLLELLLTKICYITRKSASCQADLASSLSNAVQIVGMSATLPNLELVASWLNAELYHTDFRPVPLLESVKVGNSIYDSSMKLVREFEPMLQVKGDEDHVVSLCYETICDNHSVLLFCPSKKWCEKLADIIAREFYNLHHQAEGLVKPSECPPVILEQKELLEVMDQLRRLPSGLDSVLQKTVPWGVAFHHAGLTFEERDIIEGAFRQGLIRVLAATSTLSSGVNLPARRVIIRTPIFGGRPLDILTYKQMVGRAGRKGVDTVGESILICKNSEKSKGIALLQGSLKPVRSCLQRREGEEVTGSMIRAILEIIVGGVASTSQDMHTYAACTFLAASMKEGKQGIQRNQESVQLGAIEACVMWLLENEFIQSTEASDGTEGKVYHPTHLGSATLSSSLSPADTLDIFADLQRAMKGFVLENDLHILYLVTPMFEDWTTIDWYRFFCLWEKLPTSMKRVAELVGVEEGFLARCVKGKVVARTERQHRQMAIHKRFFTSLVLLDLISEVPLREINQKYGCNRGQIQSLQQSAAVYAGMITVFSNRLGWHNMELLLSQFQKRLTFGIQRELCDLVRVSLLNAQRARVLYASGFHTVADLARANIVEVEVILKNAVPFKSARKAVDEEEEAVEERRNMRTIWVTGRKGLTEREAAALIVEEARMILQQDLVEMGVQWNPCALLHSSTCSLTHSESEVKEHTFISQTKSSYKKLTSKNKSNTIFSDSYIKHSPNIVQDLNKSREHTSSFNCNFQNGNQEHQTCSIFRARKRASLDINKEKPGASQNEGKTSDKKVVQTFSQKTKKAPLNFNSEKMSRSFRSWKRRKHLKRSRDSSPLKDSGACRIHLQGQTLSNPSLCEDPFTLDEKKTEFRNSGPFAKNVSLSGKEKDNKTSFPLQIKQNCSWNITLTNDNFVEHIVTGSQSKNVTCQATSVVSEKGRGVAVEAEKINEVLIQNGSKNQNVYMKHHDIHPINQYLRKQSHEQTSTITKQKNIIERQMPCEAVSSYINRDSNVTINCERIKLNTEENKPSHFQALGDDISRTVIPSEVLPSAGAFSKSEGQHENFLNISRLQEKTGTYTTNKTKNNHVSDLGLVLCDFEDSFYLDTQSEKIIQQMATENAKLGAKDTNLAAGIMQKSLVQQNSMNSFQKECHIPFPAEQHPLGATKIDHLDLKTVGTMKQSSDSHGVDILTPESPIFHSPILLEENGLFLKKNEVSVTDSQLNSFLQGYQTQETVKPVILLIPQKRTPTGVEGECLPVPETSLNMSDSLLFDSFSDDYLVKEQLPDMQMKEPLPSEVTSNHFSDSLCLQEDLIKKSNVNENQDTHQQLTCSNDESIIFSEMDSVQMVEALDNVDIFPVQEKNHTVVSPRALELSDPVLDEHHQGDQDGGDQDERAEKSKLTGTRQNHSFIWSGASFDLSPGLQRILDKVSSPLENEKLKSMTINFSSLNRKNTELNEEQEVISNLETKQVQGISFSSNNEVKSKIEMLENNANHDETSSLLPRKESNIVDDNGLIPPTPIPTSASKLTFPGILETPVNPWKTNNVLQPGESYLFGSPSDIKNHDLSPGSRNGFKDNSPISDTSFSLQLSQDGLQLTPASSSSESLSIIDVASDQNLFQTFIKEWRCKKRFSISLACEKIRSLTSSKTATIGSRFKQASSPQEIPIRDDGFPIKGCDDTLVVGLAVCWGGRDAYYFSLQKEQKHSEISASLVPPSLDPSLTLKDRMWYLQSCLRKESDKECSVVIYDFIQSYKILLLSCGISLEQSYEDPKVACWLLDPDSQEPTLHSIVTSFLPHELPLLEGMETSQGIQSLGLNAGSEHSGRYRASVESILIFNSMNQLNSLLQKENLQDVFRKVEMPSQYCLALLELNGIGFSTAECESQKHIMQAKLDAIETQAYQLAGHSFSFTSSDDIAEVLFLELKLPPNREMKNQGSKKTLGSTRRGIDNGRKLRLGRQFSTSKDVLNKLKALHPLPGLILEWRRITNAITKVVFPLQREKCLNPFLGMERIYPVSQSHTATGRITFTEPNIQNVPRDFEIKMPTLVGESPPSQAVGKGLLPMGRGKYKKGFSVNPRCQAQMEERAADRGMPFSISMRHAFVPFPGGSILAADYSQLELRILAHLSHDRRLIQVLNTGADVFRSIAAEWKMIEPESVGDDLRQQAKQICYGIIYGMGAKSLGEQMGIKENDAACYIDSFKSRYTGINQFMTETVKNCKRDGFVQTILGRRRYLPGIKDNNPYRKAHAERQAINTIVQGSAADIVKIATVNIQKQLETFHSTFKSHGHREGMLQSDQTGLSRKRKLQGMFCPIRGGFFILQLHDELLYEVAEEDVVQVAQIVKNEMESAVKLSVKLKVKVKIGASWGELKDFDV

The IC50 is the concentration that gives 50% inhibition. The low end stands for greater potency, the high end for weaker potency. Regarding `CC(=O)N1CCN(CCN2C[C@@H](C(=O)N(C)c3ccc(F)c(Cl)c3F)N(c3cc(C(F)(F)F)cc(C)n3)C2=O)CC1` [Example 204, (S)-1-(2-(4-Acetylpiperazin-1-yl)ethyl)-N-(3-chloro-2,4-difluoro-phenyl)-N-methyl-3-(6-methyl-4-(trifluoromethyl)pyridin-2-yl)-2-oxoimidazolidine-4-carboxamide], inhibition was half-maximal at 3 nM (IC50). That is a single-digit nanomolar value. For `Cc1cc(C(F)(F)F)cc(N2C(=O)N(CCCN3CCNCC3)C[C@H]2C(=O)N(C)c2ccc(F)c(Cl)c2F)n1` [Example 220, (S)—N-(3-Chloro-2,4-difluorophenyl)-N-methyl-3-(6-methyl-4-(trifluoromethyl)pyridin-2-yl)-2-oxo-1-(3-(piperazin-1-yl)propyl)imidazolidine-4-carboxamide], the IC50 is 11 nM.

In turn, `CCN(C(=O)[C@@H]1C[C@H](N[C@@H]2CN(C(=O)OC(C)(C)C)C[C@H]2O)CN1c1cc(C(F)(F)F)cc(C)n1)c1ccc(F)c(F)c1` (racemic) [Example 135, rac-tert-Butyl (3R,4R)-3-(((3S,5S)-5-((3,4-difluorophenyl)(ethyl)carbamoyl)-1-(6-methyl-4-(trifluoromethyl)-pyridin-2-yl)pyrrolidin-3-yl)amino)-4-hydroxypyrrolidine-1-carboxylate] registered an IC50 of 223 nM.

`CCN(C(=O)[C@@H]1C[C@H](N(C)[C@@H]2CCOC[C@H]2O)CN1c1cc(C(F)(F)F)cc(C)n1)c1ccc(F)c(F)c1` [Example 139, (2S,4S)—N-(3,4-Difluorophenyl)-N-ethyl-4-(((3S,4R)-3-hydroxytetrahydro-2H-pyran-4-yl)(methyl)amino)-1-(6-methyl-4-(trifluoromethyl)pyridin-2-yl)pyrrolidine-2-carboxamide] showed an IC50 of 164 nM. With `CCN(C(=O)[C@@H]1C[C@H](N2CCOC(CO)C2)CN1c1nc(C)cc(C(F)(F)F)c1C#N)c1cccc(Cl)c1` (stereo partly drawn) [Example 147, (2S,4S)-N-(3-Chlorophenyl)-1-(3-cyano-6-methyl-4-(trifluoromethyl)pyridin-2-yl)-N-ethyl-4-(2-(hydroxymethyl)morpholino)pyrrolidine-2-carboxamide] the figure was 28 nM; with `Cc1cc(C(F)(F)F)cc(N2C(=O)N(CC(O)CN3CCC(F)(F)C3)C[C@H]2C(=O)N(C)c2ccc(F)c(Cl)c2F)n1` (stereo partly drawn) [Example 216, (4S)—N-(3-Chloro-2,4-difluorophenyl)-1-(3-(3,3-difluoropyrrolidin-1-yl)-2-hydroxy-propyl)-N-methyl-3-(6-methyl-4-(trifluoromethyl)pyridin-2-yl)-2-oxoimidazolidine-4-carboxamide], 4 nM; with `Cc1cc(C(F)(F)F)cc(N2C(=O)N(CC3CN(C)C3)C[C@H]2C(=O)N(C)c2ccc(F)c(Cl)c2F)n1` [Example 189, (S)—N-(3-Chloro-2,4-difluorophenyl)-N-methyl-3-(6-methyl-4-(trifluoromethyl)pyridin-2-yl)-1-((1-methylazetidin-3-yl)methyl)-2-oxoimidazolidine-4-carboxamide], 32 nM. Under `Cc1cc(C(F)(F)F)cc(N2C(=O)OC[C@H]2C(=O)N(C)c2ccc(F)c(C)c2F)n1` [Example 100, (S)-N-(2,4-Difluoro-3-methylphenyl)-N-methyl-3-(6-methyl-4-(trifluoromethyl)pyridin-2-yl)-2-oxooxazolidine-4-carboxamide] stands 4 nM; under `Cc1cccc(N(C)C(=O)[C@@H]2C[C@H](O)CN2c2nc(N(C)C)cc(C(F)(F)F)c2C#N)c1` [Example 32, (2S,4S)-1-(3-Cyano-6-(dimethylamino)-4-(trifluoromethyl)pyridin-2-yl)-4-hydroxy-N-methyl-N-(m-tolyl)pyrrolidine-2-carboxamide], 209 nM. Under `Cc1cc(C(F)(F)F)cc(N2C(=O)NC[C@H]2C(=O)N(C)c2ccc3ccn(C)c3n2)n1` [Example 234, (S)—N-Methyl-N-(1-methyl-1H-pyrrolo[2,3-b]pyridin-6-yl)-3-(6-methyl-4-(trifluoromethyl)pyridin-2-yl)-2-oxoimidazolidine-4-carboxamide] stands 5 nM; under `Cc1cc(C(F)(F)F)cc(N2C(=O)N(S(C)(=O)=O)C[C@H]2C(=O)N(C)c2ccc(F)c(Cl)c2)n1` [Example 159, (S)—N-(3-Chloro-4-fluorophenyl)-N-methyl-3-(6-methyl-4-(trifluoromethyl)pyridin-2-yl)-1-(methylsulfonyl)-2-oxoimidazolidine-4-carboxamide], 178 nM; under `CCN(C(=O)[C@@H]1C[C@H](NC2CNC2)CN1c1nc(C)cc(C)c1C#N)c1cccc(C)c1` [Example 51, (2S,4S)-4-(Azetidin-3-ylamino)-1-(3-cyano-4,6-dimethylpyridin-2-yl)-N-ethyl-N-(m-tolyl)pyrrolidine-2-carboxamide], 1560 nM.

On to `Cc1cc(C(F)(F)F)cc(N2C(=O)OC[C@H]2C(=O)N(C)c2ccc(Cl)cc2F)n1` [Example 97, (S)-N-(4-Chloro-2-fluorophenyl)-N-methyl-3-(6-methyl-4-(trifluoromethyl)pyridin-2-yl)-2-oxooxazolidine-4-carboxamide], for which the 50% inhibitory concentration (IC50) is 11 nM.

In the case of `Cc1cc(C(F)(F)F)c(C#N)c(N2C[C@@H](O)C[C@H]2C(=O)N(C)c2ccc(Cl)c(F)c2)n1` [Example 18, (2S,4S)-N-(4-Chloro-3-fluorophenyl)-1-(3-cyano-6-methyl-4-(trifluoromethyl)pyridin-2-yl)-4-hydroxy-N-methyl-pyrrolidine-2-carboxamide], the IC50 came out at 33 nM. This IC50 lies about 3-fold higher than the previous one. On to `Cc1cc(C(F)(F)F)cc(N2C(=O)[C@@H](CN(C)C)C[C@@H]2C(=O)N(C)c2ccc(F)c(Cl)c2)n1` (stereo in doubt) [Example 79, (2R,4R)—N-(3-Chloro-4-fluorophenyl)-4-((dimethylamino)methyl)-N-methyl-1-(6-methyl-4-(trifluoromethyl)pyridin-2-yl)-5-oxopyrrolidine-2-carboxamide], for which half-maximal inhibition (IC50) was put at 90 nM. `Cc1cc(C(F)(F)F)cc(N2C(=O)OC[C@H]2C(=O)N(C)c2ccc(F)c(Cl)c2F)n1` [Example 85, (S)—N-(3-Chloro-2,4-difluorophenyl)-N-methyl-3-(6-methyl-4-(trifluoromethyl)pyridin-2-yl)-2-oxooxazolidine-4-carboxamide] gave an IC50 of 5 nM.

As to `Cc1cc(C(F)(F)F)cc(N2C(=O)[C@@H](O)[C@@H](O)[C@H]2C(=O)N(C)c2ccc(F)c(Cl)c2F)n1` [Example 70, (2S,3S,4S)—N-(3-Chloro-2,4-difluorophenyl)-3,4-dihydroxy-N-methyl-1-(6-methyl-4-(trifluoromethyl)pyridin-2-yl)-5-oxopyrrolidine-2-carboxamide], the IC50 is 4 nM. The compound `Cc1cc(C(F)(F)F)cc(N2C(=O)N(CC(O)CN3CCOCC3)C[C@H]2C(=O)N(C)c2ccc(F)c(Cl)c2F)n1` (stereo partly drawn) [Example 217, (4S)—N-(3-Chloro-2,4-difluorophenyl)-1-(2-hydroxy-3-morpholinopropyl)-N-methyl-3-(6-methyl-4-(trifluoromethyl)pyridin-2-yl)-2-oxoimidazolidine-4-carboxamide] returned an IC50 of 7 nM. Compared with the last compound, the IC50 is about 1.8-fold higher.

Compound `Cc1cc(C(F)(F)F)cc(N2C(=O)NC[C@H]2C(=O)N(C)c2ccc3c(Cl)c[nH]c3n2)n1` [Example 240, (S)—N-(3-Chloro-1H-pyrrolo[2,3-b]pyridin-6-yl)-N-methyl-3-(6-methyl-4-(trifluoromethyl)pyridin-2-yl)-2-oxoimidazolidine-4-carboxamide] registered an IC50 of 7 nM.
